The values below come from ChEMBL document CHEMBL4184184, “Lead identification and optimization of bacterial glutamate racemase inhibitors” (Bioorg Med Chem, 2018).

Converted amounts (≈) assume the structure as drawn. The source made the active and inactive calls. The rule behind the calls is not given here. Some results are limits rather than exact numbers.

For data set [1], the system named is Mycobacterium tuberculosis. Briefly: Antibacterial activity against Mycobacterium tuberculosis H37Rv after 1 week by MABA. Format: functional. To be noted: 168 h. A general note: The colour change of resazurin is a common sign of viable cells or microbes.
Data set [2] has as its system Mycobacterium tuberculosis. Briefly: Antibacterial activity against Mycobacterium tuberculosis H37Rv after 1 week in presence of efflux pump inhibitor verapamil by MABA. In kind it is functional. Particulars: 168 h.
The subject of data set [3] is Mycobacterium tuberculosis. As to the kind of experiment: Antibacterial activity against Mycobacterium tuberculosis H37Rv after 1 week in presence of efflux pump inhibitor piperine by MABA. Format: functional. Particulars: 168 h.
The nature of data set [4]: Cytotoxicity against mouse RAW264.7 cells assessed as growth inhibition at 25 uM after 48 hrs by MTT assay relative to control. In kind it is cell-based. Particulars: read-out: GI. Background: Formazan colour is commonly taken as a measure of viable cells.
The test system of data set [5] is Mycobacterium tuberculosis. Briefly: Antibacterial activity against non replicating Mycobacterium tuberculosis H37Rv assessed as log reduction in bacterial count at 10 ug/ml incubated for 7 days followed by compound dilution measured after 4 weeks. Format: functional.
Data set [6] has as its system Mycobacterium tuberculosis. As to the kind of experiment: Antibiofilm activity against Mycobacterium tuberculosis H37Rv at 10 ug/ml after 1 week. In kind it is functional.
Data set [7] concerns the target T1, Glutamate racemase (Mycobacterium tuberculosis (strain ATCC 25618 / H37Rv)) (UniProt P9WPW9).
T1 sequence (whole entry): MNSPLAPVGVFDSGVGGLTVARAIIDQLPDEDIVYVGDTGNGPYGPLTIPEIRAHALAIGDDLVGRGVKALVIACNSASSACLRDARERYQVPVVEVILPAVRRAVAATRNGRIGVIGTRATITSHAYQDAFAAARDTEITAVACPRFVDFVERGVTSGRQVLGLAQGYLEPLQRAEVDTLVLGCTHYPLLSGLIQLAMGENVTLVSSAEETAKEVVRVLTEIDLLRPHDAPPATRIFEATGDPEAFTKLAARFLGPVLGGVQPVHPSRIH
Briefly: Non-competitive inhibition of Mycobacterium tuberculosis glutamate racemase assessed as change in melting temperature in presence of substrate D-glutamate by SYPRO orange dye based fluorescence assay.

Data set [8] concerns the target T1, Glutamate racemase (Mycobacterium tuberculosis (strain ATCC 25618 / H37Rv)). Briefly: Non-competitive inhibition of Mycobacterium tuberculosis glutamate racemase assessed as change in melting temperature by SYPRO orange dye based fluorescence assay.
For data set [9], the system named is Mycobacterium tuberculosis. Briefly: Ratio of MBC to MIC for Mycobacterium tuberculosis H37Rv. In kind it is functional.
Data set [10] concerns Mycobacterium tuberculosis. Briefly: Bacteriostatic activity against Mycobacterium tuberculosis H37Rv at 5 to 20 uM incubated up to 21 days. In kind it is functional, organism-based.
The subject of data set [11] is Mycobacterium marinum. Briefly: Antibacterial activity against Mycobacterium marinum ATCC BAA-535 infected in zebra fish assessed as log reduction in bacterial load at 10 mg/kg, po for 7 days. In kind it is functional.
For data set [12], the target named is T1, Glutamate racemase (Mycobacterium tuberculosis (strain ATCC 25618 / H37Rv)). As to the kind of experiment: Binding affinity to Mycobacterium tuberculosis glutamate racemase assessed as change in melting temperature by SYPRO orange dye based fluorescence assay.
Data set [13] relates to Mycobacterium tuberculosis. As to the kind of experiment: Bacteriostatic activity against Mycobacterium tuberculosis H37Rv assessed as reduction in bacterial count at 25 uM incubated up to 21 days relative to control. Format: functional.
The subject of data set [14] is Mycobacterium tuberculosis. As to the kind of experiment: Bactericidal activity against Mycobacterium tuberculosis H37Rv incubated up to 21 days. In kind it is functional, organism-based.
The subject of data set [15] is Mycobacterium marinum. As to the kind of experiment: Antibacterial activity against Mycobacterium marinum ATCC BAA-535 infected in zebra fish assessed as log reduction in bacterial load at 5 mg/kg, po for 7 days. In kind it is functional.

`FC(F)(F)c1ccc2sc(-c3cccc(NC(=S)Nc4ccccc4)c3)nc2c1`: the minimum inhibitory concentration (MIC) – broadly, the least concentration at which growth counts as inhibited – in [1] turned out to be 14.7 µM (≈ 6.3 µg/mL); in [2], 1.84 µM; in [3], 14.6 µM. In addition, the inhibition at 48 h, 25 µM in [4] was 28.1%.

`O=C(Nc1ccc(Cl)cc1)Nc1cccc(-c2nc3ccccc3s2)c1`: in [1], the MIC came out at 65.9 µM (≈ 25 µg/mL). Also, the inhibition at 48 h, 25 µM in [4] stood at 30.1%.

Turning to `Fc1ccc(NC(=S)Nc2cccc(-c3nc4ccccc4s3)c2)cc1`, the minimal inhibitory concentration (MIC) in [1] came to 2.15 µM (≈ 0.816 µg/mL); in [2], 2.15 µM; in [3] it was 2.15 µM. In addition, in data set [4], the inhibition at 48 h, 25 µM was 98.2%.

Take `CC[C@@H](CO)NCCN[C@@H](CC)CO` [ETHAMBUTOL]: the MIC in data set [1] came to 7.64 µM (≈ 1.56 µg/mL); in data set [2], 3.82 µM; in [3], 3.82 µM.

Take `COc1ccc(NC(=O)Nc2cccc(-c3nc4cc(C(F)(F)F)ccc4s3)c2)cc1`: the MIC in data set [1] was determined as 56.4 µM (≈ 25 µg/mL). The inhibition at 48 h, 25 µM in data set [4] is 59.1%.

Consider `O=[N+]([O-])c1ccc(NC(=S)Nc2cccc(-c3nc4cc(C(F)(F)F)ccc4s3)c2)cc1`, for which the MIC in [1] stood at 52.7 µM (≈ 25 µg/mL); in data set [2], 3.34 µM; in [3] it was 52.7 µM. In addition, in data set [4], the inhibition at 48 h, 25 µM came to 18.4%.

Take `CO[C@H]1/C=C/O[C@@]2(C)Oc3c(C)c(O)c4c(O)c(c(/C=N/N5CCN(C)CC5)c(O)c4c3C2=O)NC(=O)/C(C)=C\C=C\[C@H](C)[C@H](O)[C@@H](C)[C@@H](O)[C@@H](C)[C@H](OC(C)=O)[C@@H]1C` [RIFAMPIN]: the figures for the minimal inhibitory concentration (MIC) in data set [1], in data set [2] and in [3] were 0.15 µM (≈ 0.123 µg/mL), 0.15 µM and 0.15 µM, respectively. Further, the “log(activity)” value in data set [5] came out at 0.5; in [6], 1.2.

In turn, `COc1ccc(NC(=O)Nc2cccc(-c3nc4ccccc4s3)c2)cc1` gave a minimal inhibitory concentration (MIC) in data set [1] of 33.3 µM (≈ 12.5 µg/mL). Further, the inhibition at 48 h, 25 µM in data set [4] came to 56.1%.

In data set [1], `O=C(Nc1ccccc1)Nc1cccc(-c2nc3cc(C(F)(F)F)ccc3s2)c1` yielded a minimal inhibitory concentration (MIC) of 3.76 µM (≈ 1.55 µg/mL). Moreover, the inhibition at 48 h, 25 µM in [4] is 40%.

In the case of `S=C(NCc1ccccc1)Nc1cccc(-c2nc3ccccc3s2)c1`, the MIC in data set [1] is 66.6 µM (≈ 25 µg/mL); in data set [2], 2.12 µM; in data set [3] it was 66.6 µM. Further, in data set [4], the inhibition at 48 h, 25 µM was 32.2%.

As for `Cc1ccc(NC(=S)Nc2cccc(-c3nc4ccccc4s3)c2)cc1`, the ΔTm – broadly, the shift of the melting midpoint relative to a reference – in [7] amounted to 4.7 °C; in [8], 3.9 °C. Moreover, the minimal inhibitory concentration (MIC) is 16.6 µM (≈ 6.24 µg/mL) in [1], 8.29 µM in [2] and 16.6 µM in data set [3]. The inhibition at 48 h, 25 µM in data set [4] came to 17.5%. Moreover, the “log(activity)” value is 2.1 in data set [5], 2 in data set [6] and 3.5 in the data set on Mycobacterium marinum [11]. Besides, the Ratio in data set [9] is reported as >4. For the same compound, the result in data set [10] was Active.

As for `Cc1ccc(NC(=S)Nc2cccc(-c3nc4cc(C(F)(F)F)ccc4s3)c2)cc1`, in data set [1], the MIC was 28.3 µM (≈ 12.5 µg/mL). Further, in [4], the inhibition at 48 h, 25 µM was 97.1%.

Take `N[C@H](CCC(=O)O)C(=O)O`: the ΔTm in data set [12] came to 2.4 °C.

In the case of `O=C(Nc1ccc([N+](=O)[O-])cc1)Nc1cccc(-c2nc3ccccc3s2)c1`, the MIC in [1] came to 8.09 µM (≈ 3.16 µg/mL); in data set [2], 2.04 µM; in data set [3] it was 8.09 µM. In [4], the inhibition at 48 h, 25 µM is 42.1%. For the same compound, the entries for the “log(activity)” value in data set [5] and in data set [6] were 2.1 and 0.7, respectively. Moreover, the Ratio in data set [9] is given as <4. For the same compound, in [13], the “fold change (FC)” value was >3. Also, in data set [14], the Activity entry was “Dose-dependent effect”.

In data set [1], `O=C(Nc1ccccc1)Nc1cccc(-c2nc3ccccc3s2)c1` gave an MIC of 72.9 µM (≈ 25.2 µg/mL). In addition, in [4], the inhibition at 48 h, 25 µM was determined as 97.2%.

Take `Fc1ccc(NC(=S)Nc2cccc(-c3nc4cc(C(F)(F)F)ccc4s3)c2)cc1`: the values for the MIC in data set [1], in data set [2] and in [3] were 27.9 µM (≈ 12.5 µg/mL), 7.01 µM and 27.9 µM, respectively. The inhibition at 48 h, 25 µM in [4] is 76.3%. The “log(activity)” value in data set [5] is listed as 2.1. The Ratio in [9] is given as >4. Further, in data set [10], the result was Active.

With `COc1c(N2C[C@@H]3CCCN[C@@H]3C2)c(F)cc2c(=O)c(C(=O)O)cn(C3CC3)c12` [MOXIFLOXACIN], in data set [5], the outcome was Active. In addition, the “log(activity)” value was determined as 1.8 in data set [6] and 2.5 in the data set with Mycobacterium marinum [11].

On to `O=[N+]([O-])c1ccc(NC(=S)Nc2cccc(-c3nc4ccccc4s3)c2)cc1`, for which the minimum inhibitory concentration (MIC) in data set [1] turned out to be 61.6 µM (≈ 25 µg/mL). Further, the inhibition at 48 h, 25 µM in data set [4] turned out to be 98.2%.

On to `Cc1ccc(NC(=O)Nc2cccc(-c3nc4cc(C(F)(F)F)ccc4s3)c2)cc1`, for which the lowest concentration to inhibit growth in data set [1] (MIC) was 58.6 µM (≈ 25 µg/mL). In addition, the inhibition at 48 h, 25 µM in data set [4] is 22.5%.

`S=C(Nc1ccccc1)Nc1cccc(-c2nc3ccccc3s2)c1` registered an MIC in data set [1] of 69.2 µM (≈ 25 µg/mL). Moreover, the inhibition at 48 h, 25 µM in [4] is 2.35%.

On to `S=C(Nc1ccc(Cl)cc1)Nc1cccc(-c2nc3ccccc3s2)c1`, for which the MIC in [1] came to 2.09 µM (≈ 0.828 µg/mL). The inhibition at 48 h, 25 µM in data set [4] is 58.4%.

Turning to `NNC(=O)c1ccncc1` [ISONIAZID], the MIC in [1] came to 0.72 µM (≈ 0.0987 µg/mL); in data set [2], 0.72 µM; in [3], 0.72 µM. For the same compound, the “log(activity)” value is 1.1 in [5], 1 in data set [6] and 2.6 with Mycobacterium marinum [15].

`O=C(Nc1ccc(F)cc1)Nc1cccc(-c2nc3cc(C(F)(F)F)ccc3s2)c1` returned a minimum inhibitory concentration (MIC) in [1] of 57.9 µM (≈ 25 µg/mL). Moreover, in data set [4], the inhibition at 48 h, 25 µM was found to be 97.7%.

Turning to `FC(F)(F)c1ccc2sc(-c3cccc(NC(=S)NCc4ccccc4)c3)nc2c1`, it took 14.7 µM (≈ 6.52 µg/mL) to inhibit growth in data set [1] (MIC). For the same compound, the inhibition at 48 h, 25 µM in [4] worked out at 96.1%. Also, the “log(activity)” value in data set [5] amounted to 2.1; in [6], 1.8. For the same compound, in data set [9], the Ratio is reported as >4. In addition, the outcome in data set [10] was Active.

For the compound `O=C(Nc1ccc(Cl)cc1)Nc1cccc(-c2nc3cc(C(F)(F)F)ccc3s2)c1`, the MIC in [1] was 55.9 µM (≈ 25 µg/mL). Besides, the inhibition at 48 h, 25 µM in [4] was 45.7%.

For the compound `O=C(Nc1ccc(F)cc1)Nc1cccc(-c2nc3ccccc3s2)c1`, the ΔTm in [12] is 3.3 °C.

As for `Cc1ccc(NC(=O)Nc2cccc(-c3nc4ccccc4s3)c2)cc1`, the minimum inhibitory concentration (MIC) in data set [1] was determined as 69.7 µM (≈ 25 µg/mL); in data set [2], 2.17 µM; in data set [3], 69.7 µM. Moreover, the inhibition at 48 h, 25 µM in data set [4] was 31.2%.

In data set [1], `O=C(Nc1ccc([N+](=O)[O-])cc1)Nc1cccc(-c2nc3cc(C(F)(F)F)ccc3s2)c1` returned an MIC of 54.7 µM (≈ 25.1 µg/mL). For the same compound, the inhibition at 48 h, 25 µM in data set [4] is 99.2%.

In turn, `FC(F)(F)c1ccc2sc(-c3cccc(NC(=S)Nc4ccc(Cl)cc4)c3)nc2c1` had an MIC in data set [1] of 53.9 µM (≈ 25 µg/mL). Besides, the inhibition at 48 h, 25 µM in data set [4] was 97.3%.
